Columns and labels:
hL-CPT1 = molecular target: T1, hL-CPT1 (Homo sapiens, UniProt P50416); test: hL-CPT1 inhibition (spectrophotometric DTNB CPT activity assay); format: biochemical; conditions: human liver CPT1 expressed in P. pastoris, cell extract; carnitine 500 μM, palmitoyl-CoA 80 μM, DTNB 300 μM
T1 construct: made in house; host or cells: Pichia pastoris strain X-33 (pGAPZB/pGAPZA), crude cell-free extract
T1 sequence (P50416 1-773): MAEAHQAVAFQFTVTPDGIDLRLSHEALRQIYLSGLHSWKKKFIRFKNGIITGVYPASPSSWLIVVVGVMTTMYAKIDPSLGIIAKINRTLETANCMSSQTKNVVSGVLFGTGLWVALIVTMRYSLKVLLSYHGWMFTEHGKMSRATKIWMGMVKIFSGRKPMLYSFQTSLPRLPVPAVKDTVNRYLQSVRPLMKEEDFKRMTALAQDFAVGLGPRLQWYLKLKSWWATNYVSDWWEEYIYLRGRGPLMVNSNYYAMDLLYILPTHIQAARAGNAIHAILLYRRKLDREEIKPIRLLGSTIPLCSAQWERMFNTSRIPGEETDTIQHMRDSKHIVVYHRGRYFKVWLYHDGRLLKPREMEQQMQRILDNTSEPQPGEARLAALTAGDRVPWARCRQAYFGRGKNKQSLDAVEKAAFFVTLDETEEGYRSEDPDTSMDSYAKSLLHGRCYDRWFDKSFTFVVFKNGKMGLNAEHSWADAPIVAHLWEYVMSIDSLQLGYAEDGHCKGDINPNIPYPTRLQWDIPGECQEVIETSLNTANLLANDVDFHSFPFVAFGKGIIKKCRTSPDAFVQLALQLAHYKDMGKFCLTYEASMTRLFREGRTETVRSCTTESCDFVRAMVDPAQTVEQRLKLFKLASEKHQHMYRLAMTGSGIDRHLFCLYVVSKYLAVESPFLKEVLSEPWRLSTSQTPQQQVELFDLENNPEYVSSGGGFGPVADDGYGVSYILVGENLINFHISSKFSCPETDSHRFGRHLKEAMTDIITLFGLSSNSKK
Procedure: (§1) The following tests were carried out in order to determine the activity of the compounds of the present invention. Background information on the performed assays can be found in: Jackson et al., 1999, Biochem. J. 341, 483-489 and Jackson et al., 2000, J. Biol. Chem. 275, 19560-19566.
(§2) Human and rat CPT2- and liver CPT1 cDNAs, and human muscle CPT1 cDNA were subcloned in pGAPZB or pGAPZA, respectively. These plasmids were used to transform P. pastoris strain X-33 via electroporation after the preparation of electrocompetent cells. High copy number clones were selected where necessary using 0.5 or 1 mg/ml Zeocin. Cultures for activity measurements were induced for 16 h in YPD medium (1% yeast extract, 2% peptone, 2% glucose). Crude cell extracts were prepared by disrupting the cells with glass beads or French Press, depending on fermenter sizes. After centrifugation, the cell-free extracts were resuspended in cell breaking buffer (50 mM Tris, pH7.4, 100 mM KCl, 1 mM EDTA) in the presence of a protease inhibitor cocktail, before aliquoting and freezing at −20° C.
(§3) CPT activity was measured using a spectrophotometric assay using 5,5′-dithio-bis-(2-nitrobenzoic acid) (DTNB) also called Ellman's reagent. The HS-CoA released on the formation of acylcarnitine from carnitine (500 μM) and palmitoyl-CoA (80 μM) reduced DTNB (300 μM) forming 5-mercapto-2-nitrobenzoic acid which absorbed at 410 nm with a molar extinction coefficient of 13600 M^−1 cm^−1. The assay buffer contained 120 mM KCl, 25 mM Tris, pH 7.4, 1 mM EDTA. This assay was used for the identification of CPT inhibitors, particularly/preferentially CPT2-selective inhibitors, versus the liver and muscle CPT1 isoforms.

hCPT2 = molecular target: T2, hCPT2 (Homo sapiens, UniProt P23786); test: hCPT2 inhibition (spectrophotometric DTNB CPT activity assay); format: biochemical; conditions: human CPT2 expressed in P. pastoris, cell extract; carnitine 500 μM, palmitoyl-CoA 80 μM, DTNB 300 μM
T2 construct: made in house; host or cells: Pichia pastoris strain X-33 (pGAPZB/pGAPZA), crude cell-free extract
T2 sequence (P23786 26-658): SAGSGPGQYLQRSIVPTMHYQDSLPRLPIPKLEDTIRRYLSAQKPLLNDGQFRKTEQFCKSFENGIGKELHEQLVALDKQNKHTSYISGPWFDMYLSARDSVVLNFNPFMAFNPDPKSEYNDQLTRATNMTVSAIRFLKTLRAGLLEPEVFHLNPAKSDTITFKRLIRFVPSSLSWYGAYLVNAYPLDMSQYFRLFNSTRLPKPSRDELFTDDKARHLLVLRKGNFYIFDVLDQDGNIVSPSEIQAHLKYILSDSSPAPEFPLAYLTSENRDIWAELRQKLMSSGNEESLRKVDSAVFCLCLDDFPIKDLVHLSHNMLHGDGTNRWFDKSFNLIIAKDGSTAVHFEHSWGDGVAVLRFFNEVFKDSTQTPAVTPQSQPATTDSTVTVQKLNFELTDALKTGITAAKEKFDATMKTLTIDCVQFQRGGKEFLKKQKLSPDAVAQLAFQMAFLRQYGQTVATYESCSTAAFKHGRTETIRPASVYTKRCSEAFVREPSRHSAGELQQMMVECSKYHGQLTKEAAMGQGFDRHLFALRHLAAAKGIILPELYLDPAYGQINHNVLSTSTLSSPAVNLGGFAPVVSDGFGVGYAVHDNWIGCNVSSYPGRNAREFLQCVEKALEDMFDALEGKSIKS
Procedure: as §1, §2, §3

SMILES | IC50 (hL-CPT1) | IC50 (hCPT2)
C[N+](C)(C)C[C@@H](CC(=O)[O-])NC(=O)CCCCCCCOCc1ccc(F)cc1F [Example 3, (R)-3-[8-(2,4-Difluoro-benzyloxy)-octanoylamino]-4-trimethylammonio-butyrate] | 1120 nM | 298 nM
C[N+](C)(C)C[C@@H](CC(=O)[O-])NC(=O)CCCCCCCc1ccccc1 [Example 31, (R)-3-(8-phenyl-octanoylamino)-4-trimethylammonio-butyrate] | 1380 nM | 538 nM
C[N+](C)(C)C[C@@H](CC(=O)[O-])NC(=O)CCCCCCCOCc1ccc(C(F)(F)F)c(F)c1 [Example 7, (R)-3-[8-(3-Fluoro-4-trifluoromethyl-benzyloxy)-octanoylamino]-4-trimethylammonio-butyrate] | 2250 nM | 32.3 nM
C[N+](C)(C)C[C@@H](CC(=O)[O-])NC(=O)CCCCCCCCCCCc1ccccc1 [Example 34, (R)-3-(12-Phenyl-dodecanoylamino)-4-trimethylammonio-butyrate] | 427 nM | 16.6 nM
C[N+](C)(C)C[C@@H](CC(=O)[O-])NC(=O)CCCCCCCOCc1cc(F)ccc1F [Example 2, (R)-3-[8-(2,5-Difluoro-benzyloxy)-octanoylamino]-4-trimethylammonio-butyrate] | 5630 nM | 125 nM
C[N+](C)(C)C[C@@H](CC(=O)[O-])NC(=O)CCCCCCCCCc1cccc(F)c1 [Example 26, (R)-3-[10-(3-Fluoro-phenyl)-decanoylamino]-4-trimethylammonio-butyrate] | 1820 nM | 8.1 nM
C[N+](C)(C)C[C@@H](CC(=O)[O-])NC(=O)CCCCCCCOCc1cccc2ccccc12 [Example 12, (R)-3-[8-(Naphthalen-1-ylmethoxy)-octanoylamino]-4-trimethylammonio-butyrate] | > 10000 nM | 41 nM
C[N+](C)(C)C[C@@H](CC(=O)[O-])NC(=O)CCCCCCCCCc1ccc(C(F)(F)F)cc1 [Example 25, (R)-4-Trimethylammonio-3-[10-(4-trifluoromethyl-phenyl)-decanoylamino]-butyrate] | 3070 nM | 125 nM
C[N+](C)(C)C[C@@H](CC(=O)[O-])NC(=O)CCCCCCCCCCc1ccccc1 [Example 33, (R)-3-(11-Phenyl-undecanoylamino)-4-trimethylammonio-butyrate] | 6080 nM | 486 nM
COc1ccc(COCCCCCCCC(=O)N[C@H](CC(=O)[O-])C[N+](C)(C)C)cc1 [Example 8, (R)-3-[8-(4-Methoxy-benzyloxy)-octanoylamino]-4-trimethylammonio-butyrate] | 7190 nM | 53.7 nM
C[N+](C)(C)C[C@@H](CC(=O)[O-])NC(=O)CCCCCCCCCc1ccccc1 [Example 18, (R)-3-(10-Phenyl-decanoylamino)-4-trimethylammonio-butyrate] | 621 nM | 14.5 nM
C[N+](C)(C)C[C@@H](CC(=O)[O-])NC(=O)CCCCCCCOCc1cccc(F)c1 [Example 15, (R)-3-[8-(3-Fluoro-benzyloxy)-octanoylamino]-4-trimethylammonio-butyrate] | 3250 nM | 29.4 nM
C[N+](C)(C)C[C@@H](CC(=O)[O-])NC(=O)CCCCCCCCCc1ccsc1 [Example 28, (R)-3-(10-Thiophen-3-yl-decanoylamino)-4-trimethylammonio-butyrate] | 854 nM | 20.2 nM
C[N+](C)(C)C[C@@H](CC(=O)[O-])NC(=O)CCCCCCCCc1ccccc1 [Example 32, (R)-3-(9-Phenyl-nonanoylamino)-4-trimethylammonio-butyrate] | 2370 nM | 246 nM
C[N+](C)(C)C[C@@H](CC(=O)[O-])NC(=O)CCCCCCCOCc1ccc(-c2ccccc2)cc1 [Example 9, (R)-3-[8-(Biphenyl-4-ylmethoxy)-octanoylamino]-4-trimethylammonio-butyrate] | 1090 nM | 1.2 nM
C[N+](C)(C)C[C@@H](CC(=O)[O-])NC(=O)CCCCCCCOCc1ccc(C(F)(F)F)cc1 [Example 6, (R)-3-[8-(4-Trifluoromethyl-benzyloxy)-octanoylamino]-4-trimethylammonio-butyrate] | 4340 nM | 32.1 nM
C[N+](C)(C)C[C@@H](CC(=O)[O-])NC(=O)CCCCCCCCCc1cccc2ccccc12 [Example 24, (R)-3-(10-Naphthalen-1-yl-decanoylamino)-4-trimethylammonio-butyrate] | 3980 nM | 21.2 nM
C[N+](C)(C)C[C@@H](CC(=O)[O-])NC(=O)CCCCCCCOCc1ccc(F)c(F)c1 [Example 1, (R)-3-[8-(3,4-Difluoro-benzyloxy)-octanoylamino]-4-trimethylammonio-butyrate] | 2190 nM | 73.2 nM

From patent US8349893B2, “4-trimethylammonio-butyrates as CPT2 inhibitors” (Hoffmann-La Roche Inc., priority 2008, dated 2013)
